# Test results from publication PMC5756575, “In Vitro Biotransformation, Safety, and Chemopreventive Action of Novel 8-Methoxy-Purine-2,6-Dione Derivatives” (Applied Biochemistry and Biotechnology, 2017).
# Where two headings read alike, the source gives them in different places.
# How the values were obtained:
# [1] = system: Cunninghamella blakesleeana 1908 DMS; experiment: Cunninghamella biotransformation assay, C. blakesleeana; assay type: in vitro ADME; conditions: 7-day incubation; for % of compound/metabolite in C. blakesleeana: 0.5 mg/mL, LC-MS/MS; for % of tested (parental) compound metabolized at the end of experiment: C. blakesleeana
# Experimental: (§1) Three different strains of Cunninghamella were used: Cunninghamella echinulata NRRL 1384, Cunninghamella blakesleeana 1908 DMS, and Cunninghamella elegans 1906 DMS. The first was provided by Dr. A.J. Carnell (University of Liverpool, UK), whereas the two remaining were purchased from Deutsche Sammlung von Mikroorganismen und Zellkulturen GmbH (DMSZ, Braunschweig, Germany).
# (§2) Cunninghamella strains were cultivated on solid potato dextrose agar (PDA) plates at 28 °C. After 4 days, a liquid fermentation basal medium was prepared by the addition of 6 g of D-glucose, 1.5 g of NaCl, 1.5 g of yeast extract from Saccharomyces cerevisiae, and 1.5 g of K2HPO4 to 300 mL of distilled water. Aliquots of 24.5 mL of medium were inoculated with 300 μL of suspension of fungal spores obtained after wetting colonies in PDA. The fungi were incubated with shaking until the formation of spherical clumps.
# (§3) Compounds 2–4 were evaluated in this experiment. Once microorganisms formed spherical clumps in the preliminary incubation, the corresponding tested compound was added to the broth and the mixture was incubated for 7 days. Two control experiments were also performed, in the absence of compound and fungus, respectively. Biotransformation progress was monitored by TLC and by liquid chromatography electrospray ionization-tandem mass spectrometry (LC-MS/MS). Monitoring was performed at four different incubation times: 30 min, 3 days, 5 days, and 7 days.
# (§4) To analyze metabolites in LC-MS/MS, an aliquot of 500 μL of filtered sample was taken and extracted with 500 μL of dichloromethane. The organic fraction was dried with sodium sulfate, filtered, and evaporated. The obtained residue was analyzed in LC-MS/MS. At the end of experiment, all the remaining medium was extracted with 25 mL of dichloromethane after separating the fungal clumps by filtration over cellulose filters.
# (§5) Agilent 1100 HPLC system (Agilent Technologies, Waldbronn, Germany) equipped with a Xbridge™ C18 analytical column (2.1 × 30 mm, […]; Waters, Dublin, Ireland) was used in the chromatographic separation of LC-MS/MS analysis. An elution gradient of acetonitrile and water, with 0.1% of formic acid, was used as a mobile phase. MS spectra were taken at Applied Biosystems MDS Sciex API 200 triple quadrupole mass analyzer (Concord, Ontario, Canada) with an electrospray ionization (ESI) interface between HPLC and MS.
# Vibrio harveyi BB7M [2] = experiment: Vibrio harveyi antimutagenicity assay against NQNO, BB7M; assay type: cell-based; conditions: compound 40 ng/mL + NQNO 40 ng/mL; for Number of revertants per plate, Mean ± SD: antimutagenicity, NQNO line = NQNO as a single compound
# Source text: (§6) Four Vibrio harveyi strains were used in this study: a wild-type BB7 (naturally found in the Baltic Sea) and three genetically modified strains, namely BB7M (obtained by the introduction of pAB1273 plasmid containing the genes mucA and mucB to enhance the error-prone DNA repair), BB7X (hypersensitive to UV radiation after genetic modification with Tn5TpMCS), and BB7XM (containing the two abovementioned modifications). These strains were kindly provided by Prof. G. Węgrzyn (Department of Molecular Biology, University of Gdańsk, Poland).
# (§7) It causes point mutations at the genome as it induces G:C → A:T transitions in Vibrio harveyi strains and in other bacteria such as Escherichia coli and S. typhimurium. […] Next, its working solution was prepared in sterile water, being 40 ng/mL its final concentration.
# Procedure followed in the V. harveyi antimutagenicity assay was similar to the mutagenicity method described before. […] The results were expressed as the inhibition percentage of mutagenic effect, which was calculated with the formula: 100 − [(R 1/R 2) × 100], where R 1 is the number of revertants per plate in the presence of both mutagen and tested substance, and R 2 is the number of revertants per plate in the presence of mutagen. […] S. typhimurium antimutagenicity assay was based on similar assumptions as the V. harveyi antimutagenicity test. In this case, the chemopreventive activity was determined at two concentrations of a tested compounds and a standard mutagen, i.e., 40 and 500 ng/mL.
# Cunninghamella strains = experiment: Cunninghamella biotransformation assay, three strains together and blank without fungus; assay type: in vitro ADME; conditions: blank: control in the absence of fungus, 7-day incubation
# Experimental: as §1, §2, §3, §4
# Agilent 1100 HPLC system (Agilent Technologies, Waldbronn, Germany) equipped with a Xbridge™ C18 analytical column (2.1 × 30 mm, […]; Waters, Dublin, Ireland) was used in the chromatographic separation of LC-MS/MS analysis. […]
# rat liver microsomes = experiment: Microsomal stability assay; assay type: in vitro ADME; conditions: 97.88 versus 302.00 μL/min/mg
# Experimental: (§8) Compounds 1 and 3 were studied in a biotransformation assay using rat liver microsomes following procedures described previously. The reagents used in this assay were levallorphan (internal standard) and NADPH-regenerating system, which contained phosphate buffer (pH 7.4), NADP^+, glucose-6-phosphate, and glucose-6-phosphate dehydrogenase. The final protein concentration in the assay was 0.4 mg/mL. Compounds 1 and 3 were tested at a final concentration of 20 μM.
# (§9) The amount of a parental compound remaining in a solution after biotransformation was monitored using LC-MS/MS as described previously in “Cunninghamella Biotransformation Assay.” Graphs representing ln of percentage of parent compound remaining versus incubation time were drawn to calculate in vitro half-time (t1/2) from the slope of linear regression. To obtain intrinsic clearance (Clint) of a tested compound in rat liver microsomal assay, t1/2 previously calculated was substituted at the equation Clint = [(Vmic/Pmic) × 0.693/t1/2], being Vmic and Pmic the volume of incubation in microliters and the amount of incubated protein in milligrams, respectively.
# as §5
# [3] = Microsomal stability assay; assay type: in vitro ADME, rat; conditions: pH 7.4, rat liver microsomes, 20 μM, 0.4 mg/mL protein
# Experimental: as §8, §9, §5
# [4] = system: Cunninghamella echinulata NRRL 1384; experiment: Cunninghamella biotransformation assay, C. echinulata; assay type: in vitro ADME; conditions: 7-day incubation; for % of compound/metabolite in C. echinulata: 0.5 mg/mL, LC-MS/MS; for % of tested (parental) compound metabolized at the end of experiment: C. echinulata
# Experimental: as §1, §2, §3, §4, §5
# Vibrio harveyi BB7 = conditions: BB7, 40 ng/mL; for MI (mutagenicity index): mutagenic if MI above 2.0; for Number of revertants per plate, Mean ± SD: mutagenicity
# Experimental: (§10) From them, 0.2 mM working solutions were prepared by dilution with water. […] Working solutions were prepared by 1:100 dilution of stock solution in water, and final compound concentration assayed was 40 ng/mL.
# as §6, §7
# (§11) To perform the V. harveyi mutagenicity test, 10 μL of a working solution of the tested compound (100 μg/mL) were added to V. harveyi bacterial culture (OD600 = 0.1) in NaCl-containing BOSS liquid medium, being 40 ng/mL the final concentration of the tested compound. […] Then, an inoculum containing 5 × 10^6 cells was added to solid BOSS agar plate supplemented with neomycin sulfate at a final concentration of 100 μg/mL. Samples were left incubating 48 h at 30 °C, and revertant colonies were counted manually.
# Vibrio harveyi BB7M [5] = conditions: 40 ng/mL; for Number of revertants per plate, Mean ± SD: mutagenicity
# Experimental: as §10, §6, §7, §11
# Vibrio harveyi BB7X = conditions: 40 ng/mL; for MI (mutagenicity index): mutagenic if MI above 2.0; for Number of revertants per plate, Mean ± SD: mutagenicity
# Experimental: as §10, §6, §7, §11
# mice = system: mice; set-up: method as in PMID 25443727, PMID 25560569; conditions: formalin test in mice; cited from earlier work
Compound,% of compound/metabolite in C. blakesleeana [1] [%],% of tested (parental) compound metabolized at the end of experiment [1] [%],"Number of revertants per plate, Mean ± SD (Vibrio harveyi BB7M [2])",% inhibition of NQNO mutagenicity (Vibrio harveyi BB7M [2]) [%],% of compound/metabolite in blank (Cunninghamella strains) [%],"Clint, fold lower than imipramine (rat liver microsomes) [fold]",half-life at 20 μM ([3]; read-out: in vitro half-time (t1/2)) [min],microsomal CLint at 20 μM ([3]; read-out: intrinsic clearance (Clint)) [µL/min/mg],% of compound/metabolite in C. echinulata [4] [%],% of tested (parental) compound metabolized at the end of experiment [4] [%],MI (mutagenicity index) (Vibrio harveyi BB7),"Number of revertants per plate, Mean ± SD (Vibrio harveyi BB7)",MI (mutagenicity index) (Vibrio harveyi BB7M [5]; mutagenic if MI above 2.0),"Number of revertants per plate, Mean ± SD (Vibrio harveyi BB7M [5])",MI (mutagenicity index) (Vibrio harveyi BB7X),"Number of revertants per plate, Mean ± SD (Vibrio harveyi BB7X)",fold higher activity than acetylsalicylic acid (mice) [fold]
"COc1nc2c(c(=O)n(C)c(=O)n2C)n1CCCC(=O)NCc1ccccc1 [Compound 3, N-benzyl-4-(8-methoxy-1,3-dimethyl-2,6-dioxo-purin-7-yl)butanamide]",95.4,4.6,48 ± 8,50,100.0,3.09,17.7,97.9,92.4,7.6,1.4,18 ± 6,1.3,35 ± 5,1.6,35 ± 4,–
"COc1nc2c(c(=O)n(C)c(=O)n2C)n1CCCC(=O)N1CCN(c2ccccc2)CC1 [Compound 4, 8-methoxy-1,3-dimethyl-7-[4-oxo-4-(4-phenylpiperazin-1-yl)butyl]purine-2,6-dione]",33.3,66.6,50 ± 9,49,100.0,–,–,–,12.4,87.6,0.8,10 ± 4,–,42 ± 11,1.2,27 ± 7,36
